Active and inactive are the calls of the source.
How the values were obtained:
[1] = molecular target: T1, Zinc finger protein mex-5 (Caenorhabditis elegans, UniProt Q9XUB2); test: MEX-5/TCR-2 RNA interaction inhibitors, dose response, biochemical, C. elegans, fluorescence polarization (AID 1960)
T1 sequence (Q9XUB2 whole entry): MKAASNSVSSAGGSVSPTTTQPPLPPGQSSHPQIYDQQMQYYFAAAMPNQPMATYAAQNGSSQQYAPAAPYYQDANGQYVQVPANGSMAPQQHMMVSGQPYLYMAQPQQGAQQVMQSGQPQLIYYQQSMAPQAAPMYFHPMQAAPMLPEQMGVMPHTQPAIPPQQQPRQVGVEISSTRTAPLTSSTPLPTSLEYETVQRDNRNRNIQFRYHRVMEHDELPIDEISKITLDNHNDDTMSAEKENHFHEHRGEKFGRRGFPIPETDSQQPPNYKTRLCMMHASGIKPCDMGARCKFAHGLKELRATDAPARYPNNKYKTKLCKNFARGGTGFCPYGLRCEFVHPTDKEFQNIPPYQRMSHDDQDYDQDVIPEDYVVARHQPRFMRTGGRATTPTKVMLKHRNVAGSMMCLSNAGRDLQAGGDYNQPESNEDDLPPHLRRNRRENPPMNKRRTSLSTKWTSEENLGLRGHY

HeLa = test: HeLa cell cytotoxicity, dose response, cytotoxicity control, 24 h, cherry-picked samples (AID 504726); format: functional, cell-based; conditions: Homo sapiens;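 note: potency for cytotoxicity as loss of luminescence signal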
[2] = molecular target: T2, RNA-binding protein pos-1 (Caenorhabditis elegans, UniProt G5EF15); test: inhibitors of POS-1/mex-3 RNA binding, dose response, biochemical, fluorescence polarization (AID 1964);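 note: purified POS-1 fused to maltose binding protein made in E. coli; potency of compounds blocking POS-1 binding to fluorescent RNA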
T2 sequence (G5EF15 whole entry): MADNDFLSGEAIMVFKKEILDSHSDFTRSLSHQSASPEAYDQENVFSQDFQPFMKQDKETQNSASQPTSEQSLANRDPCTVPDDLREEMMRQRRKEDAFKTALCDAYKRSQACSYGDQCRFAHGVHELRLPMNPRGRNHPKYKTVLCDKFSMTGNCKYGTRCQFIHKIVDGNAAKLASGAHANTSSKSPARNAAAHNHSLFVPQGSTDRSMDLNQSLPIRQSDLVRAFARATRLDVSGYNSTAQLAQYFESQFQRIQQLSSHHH

[3] = molecular target: T3, Histone-lysine N-methyltransferase NSD2 (Homo sapiens, UniProt O96028); format: biochemical
T3 sequence (O96028 whole entry): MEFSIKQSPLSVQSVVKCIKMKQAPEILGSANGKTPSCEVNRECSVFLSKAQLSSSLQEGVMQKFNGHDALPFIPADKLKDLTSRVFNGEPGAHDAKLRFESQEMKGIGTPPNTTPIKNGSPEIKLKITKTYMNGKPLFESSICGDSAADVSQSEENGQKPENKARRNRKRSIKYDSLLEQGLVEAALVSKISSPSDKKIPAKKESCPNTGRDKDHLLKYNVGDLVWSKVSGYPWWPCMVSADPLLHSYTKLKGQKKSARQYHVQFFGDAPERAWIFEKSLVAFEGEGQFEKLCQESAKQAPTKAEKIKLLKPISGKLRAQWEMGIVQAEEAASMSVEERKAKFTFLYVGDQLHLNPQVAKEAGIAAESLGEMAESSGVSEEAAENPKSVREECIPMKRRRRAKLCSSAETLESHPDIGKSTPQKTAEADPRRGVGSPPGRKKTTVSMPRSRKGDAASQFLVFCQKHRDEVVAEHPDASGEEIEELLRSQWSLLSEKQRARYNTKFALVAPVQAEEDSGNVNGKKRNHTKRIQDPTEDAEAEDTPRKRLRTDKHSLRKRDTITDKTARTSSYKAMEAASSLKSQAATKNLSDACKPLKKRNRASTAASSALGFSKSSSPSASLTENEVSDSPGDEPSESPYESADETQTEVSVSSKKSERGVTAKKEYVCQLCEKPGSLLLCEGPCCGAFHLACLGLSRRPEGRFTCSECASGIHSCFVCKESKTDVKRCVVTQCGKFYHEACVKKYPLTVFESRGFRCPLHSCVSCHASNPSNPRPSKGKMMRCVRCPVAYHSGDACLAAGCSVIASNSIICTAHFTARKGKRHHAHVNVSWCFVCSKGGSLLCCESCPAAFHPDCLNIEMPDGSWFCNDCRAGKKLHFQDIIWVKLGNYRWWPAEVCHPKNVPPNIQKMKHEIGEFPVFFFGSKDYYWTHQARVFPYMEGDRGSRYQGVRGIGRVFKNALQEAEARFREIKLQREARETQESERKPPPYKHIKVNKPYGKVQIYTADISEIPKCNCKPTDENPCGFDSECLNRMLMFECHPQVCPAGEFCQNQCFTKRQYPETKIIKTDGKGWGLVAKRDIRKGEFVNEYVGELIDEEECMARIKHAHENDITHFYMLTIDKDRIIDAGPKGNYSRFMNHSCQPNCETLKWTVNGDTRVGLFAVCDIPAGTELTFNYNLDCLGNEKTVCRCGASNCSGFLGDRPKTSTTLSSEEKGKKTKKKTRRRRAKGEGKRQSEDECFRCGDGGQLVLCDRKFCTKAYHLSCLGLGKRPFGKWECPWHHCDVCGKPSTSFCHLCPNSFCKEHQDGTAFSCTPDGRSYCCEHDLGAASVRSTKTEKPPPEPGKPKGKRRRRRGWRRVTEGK

ORF 73 = molecular target: T4, ORF 73 (Human herpesvirus 8, UniProt O40947); test: inhibitors of C-LANA binding to LBS DNA, dose response, biochemical, fluorescence polarization, cherry-picked samples (AID 504725); parameters: species or system Human gammaherpesvirus 8;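 note: fluorescence polarization of a labeled DNA duplex reporting LANA DNA binding; potency is for inhibitors that block LANA binding to the DNA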
T4 sequence (O40947 whole entry): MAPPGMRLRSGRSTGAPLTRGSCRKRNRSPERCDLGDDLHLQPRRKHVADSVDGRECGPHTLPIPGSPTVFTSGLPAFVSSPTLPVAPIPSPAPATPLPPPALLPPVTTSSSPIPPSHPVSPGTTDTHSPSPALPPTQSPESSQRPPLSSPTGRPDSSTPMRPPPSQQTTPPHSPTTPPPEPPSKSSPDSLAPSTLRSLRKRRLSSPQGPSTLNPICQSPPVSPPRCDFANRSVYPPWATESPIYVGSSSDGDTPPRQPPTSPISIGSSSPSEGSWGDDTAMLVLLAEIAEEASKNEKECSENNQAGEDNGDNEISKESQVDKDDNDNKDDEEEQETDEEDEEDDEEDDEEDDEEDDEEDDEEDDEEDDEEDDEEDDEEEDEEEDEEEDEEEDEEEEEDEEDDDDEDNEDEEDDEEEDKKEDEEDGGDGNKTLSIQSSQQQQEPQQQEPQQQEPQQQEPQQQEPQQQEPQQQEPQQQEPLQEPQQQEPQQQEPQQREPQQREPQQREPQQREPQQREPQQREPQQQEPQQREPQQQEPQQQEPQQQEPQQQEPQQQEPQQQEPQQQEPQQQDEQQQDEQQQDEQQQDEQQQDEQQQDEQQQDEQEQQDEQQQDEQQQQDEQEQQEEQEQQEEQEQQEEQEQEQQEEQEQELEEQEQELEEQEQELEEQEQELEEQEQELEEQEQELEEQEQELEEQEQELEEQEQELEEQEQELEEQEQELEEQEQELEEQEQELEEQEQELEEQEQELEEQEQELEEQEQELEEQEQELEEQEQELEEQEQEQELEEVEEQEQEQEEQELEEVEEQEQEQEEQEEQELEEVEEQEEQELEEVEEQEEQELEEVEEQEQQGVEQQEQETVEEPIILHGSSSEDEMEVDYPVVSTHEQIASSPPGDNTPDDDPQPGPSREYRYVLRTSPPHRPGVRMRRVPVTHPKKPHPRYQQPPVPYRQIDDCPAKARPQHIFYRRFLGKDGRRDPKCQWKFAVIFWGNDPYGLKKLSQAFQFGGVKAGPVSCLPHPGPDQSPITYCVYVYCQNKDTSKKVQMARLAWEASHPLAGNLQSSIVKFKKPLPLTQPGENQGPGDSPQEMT

Keap1/Nrf2 = Keap1/Nrf2 (Homo sapiens, UniProt Q14145); test: Keap1-Nrf2 protein-protein interaction inhibitors, dose response, biochemical, fluorescence polarization, cherry-picked samples (AID 588683)
Large T antigen = Large T antigen (Simian virus 40, UniProt P03070); format: functional, Betapolyomavirus macacae;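 note: Confirmatory-stage PubChem screen for compounds that inhibit SV40 T antigen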
Salmon testes DNA = test: DNA intercalators displacing acridine orange, dose response, artefact control for KSHV LANA DNA-binding inhibitor project, biochemical, fluorescence polarization, cherry-picked samples, set 2 (AID 504727); parameters: species or system Salmonidae
[4] = molecular target: T5, Serine/threonine-protein phosphatase (Candida dubliniensis (strain CD36 / CBS 7987 / NCPF 3949 / NRRLY-17841) (Yeast), UniProt B9W6M3); test: calcineurin pathway inhibitors in yeast reporter, dose response, S. cerevisiae, CDRE-lacZ, luminescence, secondary (AID 2388); format: functional, cell-based;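 note: yeast reporter cells carrying a calcineurin-responsive lacZ construct stimulated with calcium chloride; luminescent beta-galactosidase reporter signal in whole cells rather than isolated phosphatase activity; potency for inhibition where a drop in reporter signal means calcineurin blockade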
T5 sequence (B9W6M3 whole entry): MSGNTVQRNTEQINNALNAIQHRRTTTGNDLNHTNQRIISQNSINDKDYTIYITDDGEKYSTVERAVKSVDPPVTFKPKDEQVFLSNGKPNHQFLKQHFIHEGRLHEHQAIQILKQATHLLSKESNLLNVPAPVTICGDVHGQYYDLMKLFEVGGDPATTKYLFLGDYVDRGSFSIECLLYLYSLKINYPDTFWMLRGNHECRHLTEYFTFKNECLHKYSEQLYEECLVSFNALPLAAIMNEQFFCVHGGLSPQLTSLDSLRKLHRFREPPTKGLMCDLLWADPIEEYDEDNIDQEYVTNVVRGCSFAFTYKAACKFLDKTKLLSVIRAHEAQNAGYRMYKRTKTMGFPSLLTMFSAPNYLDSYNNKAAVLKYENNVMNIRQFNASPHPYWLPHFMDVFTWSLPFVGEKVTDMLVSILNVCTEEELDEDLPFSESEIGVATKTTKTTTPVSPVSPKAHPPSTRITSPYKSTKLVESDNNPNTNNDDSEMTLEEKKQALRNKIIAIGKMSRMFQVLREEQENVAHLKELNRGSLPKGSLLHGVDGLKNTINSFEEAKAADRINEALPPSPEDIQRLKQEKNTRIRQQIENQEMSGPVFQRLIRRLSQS

[5] = molecular target: T6, Microphthalmia-associated transcription factor (Homo sapiens, UniProt O75030); test: TRPM1 promoter luciferase signal decrease, dose response, MITF inhibitor project, cell-based, SK-MEL-5, cherry-picked, set 3 (AID 493073); format: functional
T6 sequence (O75030 whole entry): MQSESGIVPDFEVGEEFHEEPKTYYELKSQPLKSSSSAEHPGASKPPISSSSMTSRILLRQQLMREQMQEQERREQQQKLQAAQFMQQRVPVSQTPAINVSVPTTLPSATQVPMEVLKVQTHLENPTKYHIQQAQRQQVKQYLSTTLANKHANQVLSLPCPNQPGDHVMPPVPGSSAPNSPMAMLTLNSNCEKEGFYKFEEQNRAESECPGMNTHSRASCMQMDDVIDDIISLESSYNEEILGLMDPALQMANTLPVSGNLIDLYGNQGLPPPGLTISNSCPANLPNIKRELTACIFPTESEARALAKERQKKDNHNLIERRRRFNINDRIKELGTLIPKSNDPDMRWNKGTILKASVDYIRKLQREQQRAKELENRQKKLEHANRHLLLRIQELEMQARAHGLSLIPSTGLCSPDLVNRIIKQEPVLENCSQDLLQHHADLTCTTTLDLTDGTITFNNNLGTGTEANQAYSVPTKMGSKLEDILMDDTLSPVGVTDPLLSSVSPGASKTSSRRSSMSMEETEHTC

INS1 = test: beta cell apoptosis inhibitors, cytokine rescue, dose response, luminescence, retest (AID 449756); format: functional, cell-based; conditions: Rattus norvegicus;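 note: cell death triggered by IL-1 beta plus TNF-alpha plus IFN-gamma mixture; protective hits raise ATP signal compared with cytokine alone wells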
[6] = C. albicans growth with fluconazole, confirmation, fluorescence, retest (AID 2467); format: functional, cell-based
[7] = molecular target: ATP-dependent molecular chaperone HSP82 (Candida albicans (strain WO-1) (Yeast), UniProt C4YTQ8); test: loss of DOC-induced GRE-beta-galactosidase reporter signal, dose response, Hsp90 inhibitor project, S. cerevisiae, luminescence (AID 2400); format: functional, cell-based;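 note: beta-galactosidase luminescence from glucocorticoid response element reporter as proxy for Hsp90 function; inhibitor potency where signal loss means Hsp90 inhibition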
cells [8] = format: functional, cell-based
cells [9] = format: functional, cell-based; remark: listed apart in the source
[10] = NIH-3T3 fibroblast cytotoxicity, dose response, cytotoxicity control, cell-based, fluorescence, Alamar Blue, secondary assay (AID 2327); format: functional;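 note: NIH-3T3 mouse fibroblasts cultured with fluconazole at 8 µg/mL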
A-375 = test: MITF: Counter assay: A375 proliferation Measured in Cell-Based System Using Plate Reader - 2084-03_Inhibitor_Dose_DryPowder_Activity. [Related pubchem assays (depositor defined):AID488944]; format: functional; conditions: Homo sapiens
Escherichia coli = test: microbe, parasite or virus in culture
[11] = molecular target: Dual specificity protein kinase CLK1 (Homo sapiens, UniProt P49759); test: CLK1 kinase inhibitors, off-target check, dose response, selectivity assay for Dyrk1A inhibitor project, biochemical, cherry-picked samples (AID 588811)
Beta-galactosidase = Beta-galactosidase (Escherichia coli, UniProt Q8VNN2); test: PubChem AID 485352; format: functional
[12] = molecular target: Type-1 angiotensin II receptor (Homo sapiens, UniProt P30556); test: AT1 receptor antagonists, dose response, selectivity assay for APJ receptor antagonist project, cell-based, uHTS hits (AID 463214); format: functional;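 note: antagonist potency against angiotensin II stimulated AT1 response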
Type-1 angiotensin II receptor, sequence (P30556 whole entry): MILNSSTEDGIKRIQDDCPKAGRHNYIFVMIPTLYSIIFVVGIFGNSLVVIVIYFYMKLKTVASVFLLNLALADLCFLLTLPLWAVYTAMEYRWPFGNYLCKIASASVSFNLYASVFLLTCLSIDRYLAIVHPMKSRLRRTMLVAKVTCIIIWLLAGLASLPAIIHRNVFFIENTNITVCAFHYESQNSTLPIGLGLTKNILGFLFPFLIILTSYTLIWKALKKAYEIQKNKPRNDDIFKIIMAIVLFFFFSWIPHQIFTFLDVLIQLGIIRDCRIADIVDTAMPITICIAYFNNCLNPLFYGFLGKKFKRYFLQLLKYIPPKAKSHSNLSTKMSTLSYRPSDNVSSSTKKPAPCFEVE

Large T antigen, sequence (P03070 whole entry): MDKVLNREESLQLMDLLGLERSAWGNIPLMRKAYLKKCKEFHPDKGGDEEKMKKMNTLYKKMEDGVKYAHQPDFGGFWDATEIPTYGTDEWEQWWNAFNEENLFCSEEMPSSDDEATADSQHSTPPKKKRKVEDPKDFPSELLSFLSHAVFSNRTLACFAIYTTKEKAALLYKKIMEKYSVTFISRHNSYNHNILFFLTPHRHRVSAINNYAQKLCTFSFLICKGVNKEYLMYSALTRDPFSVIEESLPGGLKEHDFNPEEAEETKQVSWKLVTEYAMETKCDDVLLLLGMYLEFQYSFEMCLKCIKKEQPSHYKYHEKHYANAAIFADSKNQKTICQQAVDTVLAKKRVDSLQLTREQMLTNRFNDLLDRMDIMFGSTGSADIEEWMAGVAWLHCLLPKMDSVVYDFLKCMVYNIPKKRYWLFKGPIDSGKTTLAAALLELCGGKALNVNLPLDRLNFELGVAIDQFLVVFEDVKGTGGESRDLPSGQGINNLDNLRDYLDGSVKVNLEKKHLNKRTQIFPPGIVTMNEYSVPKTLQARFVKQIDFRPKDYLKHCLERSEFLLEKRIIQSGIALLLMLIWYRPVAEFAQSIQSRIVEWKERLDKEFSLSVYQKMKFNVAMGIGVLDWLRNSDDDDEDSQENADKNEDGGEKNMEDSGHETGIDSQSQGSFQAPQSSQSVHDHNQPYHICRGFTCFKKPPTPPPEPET
Keap1/Nrf2, sequence (Q16236 whole entry): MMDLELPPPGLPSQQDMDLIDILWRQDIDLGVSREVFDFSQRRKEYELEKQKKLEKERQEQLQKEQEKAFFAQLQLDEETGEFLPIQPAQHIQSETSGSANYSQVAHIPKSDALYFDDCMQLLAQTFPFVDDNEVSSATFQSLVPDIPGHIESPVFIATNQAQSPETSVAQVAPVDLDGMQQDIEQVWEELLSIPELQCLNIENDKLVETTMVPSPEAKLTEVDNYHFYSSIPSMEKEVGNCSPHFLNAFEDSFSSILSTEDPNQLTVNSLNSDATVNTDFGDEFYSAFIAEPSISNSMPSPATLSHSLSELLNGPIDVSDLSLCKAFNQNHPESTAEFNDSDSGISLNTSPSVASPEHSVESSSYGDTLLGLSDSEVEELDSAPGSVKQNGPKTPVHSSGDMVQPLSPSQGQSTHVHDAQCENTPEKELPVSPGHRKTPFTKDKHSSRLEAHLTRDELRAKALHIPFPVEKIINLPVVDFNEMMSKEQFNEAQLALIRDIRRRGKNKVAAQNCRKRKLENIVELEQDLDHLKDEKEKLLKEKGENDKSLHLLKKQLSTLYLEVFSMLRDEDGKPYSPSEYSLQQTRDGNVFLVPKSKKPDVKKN
Keap1/Nrf2, sequence (Q14145 whole entry): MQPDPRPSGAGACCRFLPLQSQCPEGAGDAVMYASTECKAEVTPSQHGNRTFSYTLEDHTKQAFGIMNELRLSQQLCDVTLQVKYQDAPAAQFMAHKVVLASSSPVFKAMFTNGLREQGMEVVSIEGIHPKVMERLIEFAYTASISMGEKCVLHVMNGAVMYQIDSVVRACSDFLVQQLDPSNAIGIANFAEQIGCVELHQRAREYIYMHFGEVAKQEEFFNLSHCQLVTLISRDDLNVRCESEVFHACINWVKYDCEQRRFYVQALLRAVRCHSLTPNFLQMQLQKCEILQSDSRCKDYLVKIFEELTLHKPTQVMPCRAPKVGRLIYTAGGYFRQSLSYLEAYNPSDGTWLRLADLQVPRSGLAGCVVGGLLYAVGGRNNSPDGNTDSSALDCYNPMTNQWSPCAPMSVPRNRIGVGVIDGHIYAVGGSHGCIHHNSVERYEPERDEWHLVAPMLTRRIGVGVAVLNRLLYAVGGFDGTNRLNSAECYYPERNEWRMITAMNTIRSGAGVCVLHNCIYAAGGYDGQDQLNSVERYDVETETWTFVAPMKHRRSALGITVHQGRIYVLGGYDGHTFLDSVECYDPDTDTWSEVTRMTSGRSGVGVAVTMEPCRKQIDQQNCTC
Dual specificity protein kinase CLK1, sequence (P49759 whole entry): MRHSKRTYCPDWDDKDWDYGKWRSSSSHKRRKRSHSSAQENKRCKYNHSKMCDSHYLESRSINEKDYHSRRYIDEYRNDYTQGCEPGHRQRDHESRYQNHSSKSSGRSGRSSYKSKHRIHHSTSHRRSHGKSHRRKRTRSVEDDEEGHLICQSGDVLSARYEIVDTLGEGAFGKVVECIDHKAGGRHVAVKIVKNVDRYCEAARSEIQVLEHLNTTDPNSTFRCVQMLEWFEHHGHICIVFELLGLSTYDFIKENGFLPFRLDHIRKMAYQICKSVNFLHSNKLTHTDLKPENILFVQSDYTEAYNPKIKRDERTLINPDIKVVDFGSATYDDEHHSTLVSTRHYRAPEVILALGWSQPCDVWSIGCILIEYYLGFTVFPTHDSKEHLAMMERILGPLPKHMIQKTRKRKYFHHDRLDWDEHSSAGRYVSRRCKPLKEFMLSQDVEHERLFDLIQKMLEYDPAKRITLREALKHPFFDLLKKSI
Beta-galactosidase, sequence (Q8VNN2 whole entry): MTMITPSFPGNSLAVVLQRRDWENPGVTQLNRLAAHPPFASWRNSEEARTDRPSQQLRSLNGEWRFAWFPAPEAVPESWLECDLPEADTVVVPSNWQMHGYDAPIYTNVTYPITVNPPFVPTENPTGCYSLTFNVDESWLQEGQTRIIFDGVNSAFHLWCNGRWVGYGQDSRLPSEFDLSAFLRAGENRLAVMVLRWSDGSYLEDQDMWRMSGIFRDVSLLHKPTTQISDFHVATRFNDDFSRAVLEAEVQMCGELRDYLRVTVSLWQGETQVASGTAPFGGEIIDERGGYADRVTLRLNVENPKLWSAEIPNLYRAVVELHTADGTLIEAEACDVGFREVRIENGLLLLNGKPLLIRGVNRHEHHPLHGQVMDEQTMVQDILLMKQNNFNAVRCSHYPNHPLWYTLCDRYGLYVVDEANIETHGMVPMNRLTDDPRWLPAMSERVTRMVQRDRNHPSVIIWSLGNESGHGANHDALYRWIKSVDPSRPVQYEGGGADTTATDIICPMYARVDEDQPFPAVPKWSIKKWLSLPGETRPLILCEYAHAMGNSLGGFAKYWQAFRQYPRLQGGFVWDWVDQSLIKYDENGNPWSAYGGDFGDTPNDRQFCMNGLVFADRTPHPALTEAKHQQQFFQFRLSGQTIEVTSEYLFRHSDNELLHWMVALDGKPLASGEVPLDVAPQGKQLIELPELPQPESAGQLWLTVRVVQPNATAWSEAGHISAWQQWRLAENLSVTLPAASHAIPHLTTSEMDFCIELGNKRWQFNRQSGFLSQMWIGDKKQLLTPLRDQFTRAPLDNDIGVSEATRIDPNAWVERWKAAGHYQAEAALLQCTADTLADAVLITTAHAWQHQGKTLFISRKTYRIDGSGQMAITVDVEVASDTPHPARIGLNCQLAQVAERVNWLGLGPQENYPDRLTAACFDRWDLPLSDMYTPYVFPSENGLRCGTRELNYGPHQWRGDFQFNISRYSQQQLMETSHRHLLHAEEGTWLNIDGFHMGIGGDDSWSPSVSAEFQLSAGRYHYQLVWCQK
ATP-dependent molecular chaperone HSP82, sequence (C4YTQ8 whole entry): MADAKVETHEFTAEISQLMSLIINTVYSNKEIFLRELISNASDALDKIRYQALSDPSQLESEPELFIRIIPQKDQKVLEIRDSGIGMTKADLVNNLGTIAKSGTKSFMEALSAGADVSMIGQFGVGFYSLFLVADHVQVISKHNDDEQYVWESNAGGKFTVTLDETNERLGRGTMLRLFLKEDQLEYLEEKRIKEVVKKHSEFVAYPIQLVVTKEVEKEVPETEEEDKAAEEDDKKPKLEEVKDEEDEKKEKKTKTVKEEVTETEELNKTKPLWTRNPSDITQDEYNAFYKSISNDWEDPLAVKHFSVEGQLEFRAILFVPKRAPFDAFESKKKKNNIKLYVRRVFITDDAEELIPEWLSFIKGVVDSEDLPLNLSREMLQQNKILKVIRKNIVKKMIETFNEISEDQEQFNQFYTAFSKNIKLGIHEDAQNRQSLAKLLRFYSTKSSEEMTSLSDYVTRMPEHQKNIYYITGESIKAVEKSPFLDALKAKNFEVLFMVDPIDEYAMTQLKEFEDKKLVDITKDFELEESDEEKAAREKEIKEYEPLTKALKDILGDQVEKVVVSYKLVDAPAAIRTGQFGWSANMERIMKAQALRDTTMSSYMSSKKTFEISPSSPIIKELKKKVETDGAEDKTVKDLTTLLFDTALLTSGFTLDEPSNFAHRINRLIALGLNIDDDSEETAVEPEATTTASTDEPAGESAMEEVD

## O=C(O)CCNc1ccc(NCCC(=O)O)c2c1C(=O)c1ccccc1C2=O
[1]
  EC50: 15.3 µM (inconclusive)
HeLa
  AC50: 35 µM (active)
[2]
  EC50: 12.9 µM (active)
[3]
  AC50: 11.2 µM (active)
ORF 73
  AC50: 22.8 µM (active)
Keap1/Nrf2
  AC50: > 52 µM (inactive)
Large T antigen
  IC50: 26.7 µM (active)
Salmon testes DNA
  AC50: 37.8 µM (active)

## CCN(CC)c1ccc(/C=N/NC(=O)c2cccc(S(=O)(=O)N3CCOCC3)c2)c(O)c1
[4]
  EC50: > 180 µM (inactive)
[5]
  AC50: 1.52 µM (active)
INS1
  AC50: 0.358 µM (active)
[6]
  EC50: 0.769 µM (active)
[7]
  EC50: > 160 µM (inactive)
Cells [8]
  EC50: 2.85 µM (active)
Cells [9]
  EC50: 28.5 µM (active)
[10]
  EC50: 12.5 µM (inconclusive)
A-375
  AC50: 47.2 µM (active)

## CCc1nc2nc(C)c(NS(=O)(=O)c3ccc(Cl)s3)c(O)n2n1
Escherichia coli
  AC50: 65.8 µM (active)

## FC(F)(F)c1cccc(Nc2nccc(-c3ccc4c(c3)OCO4)n2)c1
[11]
  AC50: 15.7 µM (active)

## O=C(OCC(=O)c1ccc(Cl)cc1Cl)c1ccc2c(c1)C(=O)N(c1cccc3ncccc13)C2=O
Beta-galactosidase
  EC50: > 40 µM (inactive)
[12]
  IC50: 39.4 µM (not active)
